Tests used:
Assay type in all cases: biochemical
PDE1C = PDE1C (Homo sapiens (Human), UniProt Q14123); experiment: PDE1 inhibition assay (PDE1C), SPA with tritium labelled cAMP
Protocol: (§1) Reactions were initiated by addition of the cyclic nucleotide substrate, and reactions were allowed to proceed for 1 h at room temperature before being terminated through mixing with 20 μL (0.2 mg) yttrium silicate SPA beads (PerkinElmer). The beads were allowed to settle for 1 h in the dark before the plates were counted in a Wallac 1450 Microbeta counter.

PDE9 = PDE9 (Homo sapiens (Human), UniProt O76083); experiment: PDE9 inhibition assay, SPA with 3H-cAMP
PDE9, sequence (O76083 whole entry): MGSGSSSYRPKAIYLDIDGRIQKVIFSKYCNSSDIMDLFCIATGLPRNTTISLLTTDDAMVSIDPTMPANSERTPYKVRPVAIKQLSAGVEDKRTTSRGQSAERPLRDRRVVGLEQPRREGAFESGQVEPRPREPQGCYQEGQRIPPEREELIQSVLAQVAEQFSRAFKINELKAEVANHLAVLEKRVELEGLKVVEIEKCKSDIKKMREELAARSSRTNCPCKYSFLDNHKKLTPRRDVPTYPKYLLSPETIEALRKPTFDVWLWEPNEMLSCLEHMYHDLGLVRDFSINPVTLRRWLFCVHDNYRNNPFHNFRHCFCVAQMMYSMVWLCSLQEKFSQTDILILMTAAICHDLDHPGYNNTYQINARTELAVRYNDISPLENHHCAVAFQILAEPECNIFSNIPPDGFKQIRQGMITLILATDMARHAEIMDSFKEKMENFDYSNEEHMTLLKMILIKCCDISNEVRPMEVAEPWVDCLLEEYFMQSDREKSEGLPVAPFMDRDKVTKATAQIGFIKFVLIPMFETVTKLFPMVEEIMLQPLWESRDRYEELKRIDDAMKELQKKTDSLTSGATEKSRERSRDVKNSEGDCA
Protocol: A PDE9 assay may for example, be performed as follows: The assay is performed in 60 μL samples containing a fixed amount of the relevant PDE enzyme (sufficient to convert 20-25% of the cyclic nucleotide substrate), a buffer (50 mM HEPES pH 7.6; 10 mM MgCl2; 0.02% Tween20), 0.1 mg/mi BSA, 225 pCi of ^3H-labelled cyclic nucleotide substrate, tritium labeled cAMP to a final concentration of 5 nM and varying amounts of inhibitors. Reactions are initiated by addition of the cyclic nucleotide substrate, and reactions are allowed to proceed for one hr at room temperature before being terminated through mixing with 15 μL 8 mg/mL yttrium silicate SPA beads (Amersham). The beads are allowed to settle for one hr in the dark before the plates are counted in a Wallac 1450 Microbeta counter.
In the context of the present invention the assay was performed in 60 μL assay buffer (50 mM HEPES pH 7.6; 10 mM MgCl2; 0.02% Tween20) containing enough PDE9 to convert 20-25% of 10 nM ^3H-cAMP and varying amounts of inhibitors. Following a 1 hr incubation the reactions were terminated by addition of 15 μL 8 mg/mL yttrium silicate SPA beads (Amersham). The beads were allowed to settle for one hr in the dark before the plates were counted in a Wallac 1450 Microbeta counter.

PDE1B = PDE1B (Homo sapiens (Human), UniProt Q01064); experiment: PDE1 inhibition assay (PDE1B), SPA with tritium labelled cAMP
PDE1B, sequence (Q01064 whole entry): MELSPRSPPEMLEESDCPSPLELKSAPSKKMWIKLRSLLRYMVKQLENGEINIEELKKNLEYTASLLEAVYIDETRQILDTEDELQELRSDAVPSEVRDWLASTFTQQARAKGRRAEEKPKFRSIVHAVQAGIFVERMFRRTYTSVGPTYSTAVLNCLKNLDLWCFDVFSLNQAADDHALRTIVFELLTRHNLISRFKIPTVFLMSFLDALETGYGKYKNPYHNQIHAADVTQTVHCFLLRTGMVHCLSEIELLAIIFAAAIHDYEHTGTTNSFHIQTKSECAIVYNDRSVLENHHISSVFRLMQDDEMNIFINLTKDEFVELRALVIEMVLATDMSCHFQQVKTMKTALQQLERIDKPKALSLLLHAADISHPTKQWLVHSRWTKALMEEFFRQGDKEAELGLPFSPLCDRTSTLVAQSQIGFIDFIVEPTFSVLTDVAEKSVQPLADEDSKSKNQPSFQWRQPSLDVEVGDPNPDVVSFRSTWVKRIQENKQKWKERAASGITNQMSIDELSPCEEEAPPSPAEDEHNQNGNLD
Protocol: as §1

PDE1A = PDE1A (Homo sapiens (Human), UniProt P54750); experiment: PDE1 inhibition assay (PDE1A), SPA with tritium labelled cAMP; conditions: for inhibition at 2 µM: read-out: PDE1A, % inhibition at 2 μM
PDE1A, sequence (P54750 whole entry): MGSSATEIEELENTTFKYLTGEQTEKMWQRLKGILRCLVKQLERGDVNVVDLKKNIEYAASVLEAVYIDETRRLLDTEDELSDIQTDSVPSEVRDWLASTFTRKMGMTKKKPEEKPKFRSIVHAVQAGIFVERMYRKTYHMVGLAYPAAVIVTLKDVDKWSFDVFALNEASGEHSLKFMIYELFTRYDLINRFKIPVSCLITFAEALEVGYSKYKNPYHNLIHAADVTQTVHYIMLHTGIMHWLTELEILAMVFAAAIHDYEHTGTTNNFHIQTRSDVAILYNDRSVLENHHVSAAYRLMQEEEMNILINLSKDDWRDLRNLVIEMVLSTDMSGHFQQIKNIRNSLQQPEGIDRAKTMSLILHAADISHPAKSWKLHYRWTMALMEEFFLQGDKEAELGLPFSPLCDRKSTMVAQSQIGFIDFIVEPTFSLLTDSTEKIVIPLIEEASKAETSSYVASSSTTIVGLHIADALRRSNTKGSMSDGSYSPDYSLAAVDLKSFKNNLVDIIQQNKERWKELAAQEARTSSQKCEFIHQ
Protocol: Reactions were initiated by addition of the cyclic nucleotide substrate, and reactions were allowed to proceed for 1 h at room temperature before being terminated through mixing with 20 μL (0.2 mg) yttrium silicate SPA beads (PerkinElmer).

PDE1C, sequence (Q14123 whole entry): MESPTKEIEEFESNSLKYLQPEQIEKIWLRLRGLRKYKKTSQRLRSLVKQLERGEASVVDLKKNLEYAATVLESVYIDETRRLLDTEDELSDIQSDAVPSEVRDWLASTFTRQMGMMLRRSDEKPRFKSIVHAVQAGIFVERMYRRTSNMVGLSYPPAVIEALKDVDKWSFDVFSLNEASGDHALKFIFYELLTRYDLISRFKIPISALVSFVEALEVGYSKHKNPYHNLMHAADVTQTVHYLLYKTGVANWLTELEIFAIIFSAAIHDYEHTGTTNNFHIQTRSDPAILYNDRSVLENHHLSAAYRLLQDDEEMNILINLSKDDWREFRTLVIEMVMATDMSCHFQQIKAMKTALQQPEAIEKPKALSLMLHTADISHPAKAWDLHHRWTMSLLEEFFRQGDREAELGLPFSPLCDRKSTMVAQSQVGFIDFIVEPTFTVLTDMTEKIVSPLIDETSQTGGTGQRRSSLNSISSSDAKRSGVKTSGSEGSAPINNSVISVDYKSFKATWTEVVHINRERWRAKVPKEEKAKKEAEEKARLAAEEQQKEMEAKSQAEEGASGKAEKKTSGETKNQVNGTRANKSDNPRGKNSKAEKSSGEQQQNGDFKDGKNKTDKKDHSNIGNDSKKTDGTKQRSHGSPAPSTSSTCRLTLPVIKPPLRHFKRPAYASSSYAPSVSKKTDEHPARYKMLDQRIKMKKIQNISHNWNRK

Row | SMILES | IC50 (PDE1C) [nM] | % inhibition of PDE9 at 10 microM (PDE9) [%] | IC50 (PDE1B) [nM] | also measured
1 | Cc1cn2c([C@@H]3C[C@@H]3F)ncc2c(=O)n1Cc1cccc(F)c1 (single isomer, unassigned; isomer 1) [37, isomer 1] | 345 | −2 | – | –
2 | Cc1cn2c(N3CCC4OCC[C@@H]43)ncc2c(=O)n1Cc1cccc(F)c1 (single isomer, unassigned; isomer 2) [99, isomer 2] | 119 | 6 | 760 | PDE1A, % inhibition at 10 μM (PDE1A; at 10 μM): 47%
3 | Cc1cn2c([C@H]3C[C@H]3F)ncc2c(=O)n1Cc1cccc(F)c1 (single isomer, unassigned; isomer 2) [38, isomer 2] | 153 | 2 | – | –
4 | COc1ccc(Cn2c(C)cn3c([C@H]4CCO[C@@H]4C)ncc3c2=O)cc1 (single isomer, unassigned; isomer 3) [55, isomer 3] | – | – | 3 | –
5 | Cc1cn2c([C@@H]3C[C@H]3F)ncc2c(=O)n1Cc1cccc(F)c1 (single isomer, unassigned; isomer 1) [38, isomer 1] | – | −1 | – | –
6 | CCc1ccccc1Cn1c(C)cn2c(C3CCOCC3)ncc2c1=O [Example 49, 7-(2-ethylbenzyl)-6-methyl-3-(tetrahydro-2H-pyran-4-yl)imidazo[1,5-a]pyrazin-8(7H)-one] | – | – | – | inhibition at 2 µM (PDE1A): 44%
7 | Cc1cn2c(C3CCOCC3)ncc2c(=O)n1Cc1cccc(C#N)c1 [Example 45, 3-((6-methyl-8-oxo-3-(tetrahydro-2H-pyran-4-yl)imidazo[1,5-a]pyrazin-7(8H)-yl)methyl)benzonitrile] | – | – | – | inhibition at 2 µM (PDE1A): 64%
8 | Cc1cn2c(N3CCC4OCC[C@H]43)ncc2c(=O)n1Cc1cccc(F)c1 (single isomer, unassigned; isomer 1) [99, isomer 1] | 27 | 9 | 134 | IC50 (PDE1A): 241 nM
9 | Cc1cn2c([C@H]3C[C@@H]3F)ncc2c(=O)n1Cc1cccc(F)c1 (single isomer, unassigned; isomer 2) [37, isomer 2] | 55 | 13 | – | –
